Results published in patent publication US12151021B2, “Implantable nanochannel delivery devices” (THE METHODIST HOSPITAL SYSTEM, priority 2015, dated 2024).
Counter-ions that a name gives are not always drawn. Like-named read-outs stand apart in the source and are kept apart here. One block for each compound: values may come before it.

Legend:
[1] = Magnevist release in vitro from PEEK nanochannel capsules (MR T1 mapping); assay type: physicochemical; settings: at plateau beginning by Day 3; 47 mg/ml loading, PBS, 37 °C, n=4; approximation based on loading concentration
Experimental: The drug eluting fiducial markers were loaded with a number of different molecules to examine release kinetics into simulated physiological solution in vitro. In a series of experiments, the implants were loaded with ˜2.5 μL of OX86, FGK45, or Magnevist, placed in a 70 μL cuvette, and immersed in PBS. The cuvettes were sealed with tight-fitting lids and kept in an incubator at 37° C. The PBS solution was sampled and replaced daily. The OX86 and FGK45 release was quantified by micro-BCA assay (Sigma-Aldrich). The Magnevist was quantified through MR scanning. (7 T magnet, cut-down 96-well plate in a wrist coil). An additional experiment for quantifying IgG release was conducted similarly, but at room temperature and quantified via UV-Vis spectroscopy at 280 nm sampled every 10 minutes.
PEEK nanochannel capsules loaded with Magnevist (n=4) were immersed in 500 μl of PBS in microvolume cuvettes sealed with tight-fitting lids. These microvolume cuvettes were then placed in a 37° C. incubator. The 500 μl of sink solution were sampled and replaced daily for 7 days. The sink samples were stored at 4° C. Magnevist concentration within the samples was quantified through MR imaging of the samples within a custom-built 49 well plate (7×7) with 300 μl well volumes. […]

[2] = design: species or system C57B16 mice; settings: mouse, in vivo
Experimental: All animal procedures described herein followed IACUC protocols approved by their requisite institutions. C57B16 mice were implanted with 10^6 melanoma cells (B16F10) in the upper thigh (n=5). Once tumors reached 12 mm in its longer axis, sterile nanochannel implants loaded with 470 mg/ml of Magnevist were percutaneously implanted into the tumors with a 15 G, percutaneous trocar at a 90°angle from the axial axis of the tumor. Briefly, rodents were anesthetized with 3% isofluorane and immobilized within a sterile field. The percutaneous implantation site was cleaned with chlorhexidine and 70% ethanol and all nearby hair was shaved. The trocar was inserted to the target depth of approximately 5 mm. The nanochannel capsule was extruded through manual pressure with the obturator and the trocar was removed. A single drop of bupivicaine was added to the implantation site. The implantation site was closed with suture to ensure implant immobility and restrict animal agitation of the site. The mice had secondary heating maintained throughout the procedure and until they recovered from anesthesia.
For the in vivo MR imaging, T1- and T2-weighted images were acquired axially with respect to the laboratory frame of reference on a 7 T Bruker BioSpec Scanner (Bruker Biospin, Billerica, MA, USA). […]

[3] = from BioNumbers (Milo et al.), cited from earlier work
[4] = Doxorubicin release in vitro from nanochannel capsules (UV-Vis at 479 nm); assay type: physicochemical; settings: in 4 days; capsules with 20 nm nanochannels, loading solution 0.58 mg/ml, 23 °C, n=5
Experimental: Doxorubicin loaded nanochannel capsules (n=5) were immersed in 400 μl of Millipore water in microvolume spectroscopy cuvettes sealed with tight-fitting lids. Absorbance measures were taken every 10 min for 9 days at 479 nm by a custom-built robotic carousel (Quantum Northwest, Inc.) connected to a UV-Vis spectrophotometer (Cary 50, Agilent Technologies, Inc.). The 479 nm wavelength was selected as optimal for doxorubicin with this system by prior full spectrum analysis. The cuvettes were maintained at 23±0.3° C. for the duration of the experiment. Data were normalized with respect to a Millipore water blank, and the cumulative release of the agents was obtained through comparison to a standard curve.
The nanochannel capsules were loaded with Doxorubicin and placed in isotonic conditions in vitro to characterize their release kinetics. The nanochannel capsules were immersed in PBS within microvolume cuvettes, which were sealed with tight-fitting lids. Release into the sink solution was measured via absorbance measurements at 479 nm by a robotic 48-cell carousel (Quantum Northwest, Inc.) linked to a UV-Vis Spectrophotometer (Cary 50, Agilent Technologies, Inc.). Overall drug release was evaluated via comparison of measured absorbances to standard curves following normalization with respect to initial conditions (t=0).

loaded Magnevist released [1]: 85%
distance from implant's exterior at which observable enhancement begins [2]: 2-5 mm
thickness of band of observable enhancement [2]: approximately 1 mm
Compound: CNC[C@H](O)[C@@H](O)[C@H](O)[C@H](O)CO.CNC[C@H](O)[C@@H](O)[C@H](O)[C@H](O)CO.O=C([O-])CN(CCN(CC(=O)[O-])CC(=O)O)CCN(CC(=O)[O-])CC(=O)O.[Gd+3] [Magnevist, gadopentetate dimeglumine]

Compound: Immunoglobulin G
hydrodynamic radius [3]: 6.4 nm
hydrodynamic radius ([3]; listed as IgG isotype immunoproteins): approximately 6.4 nm

release depleted fraction of the reservoir volume [4]: around 80%
Compound: COc1cccc2c1C(=O)c1c(O)c3c(c(O)c1C2=O)C[C@@](O)(C(=O)CO)C[C@@H]3O[C@H]1C[C@H](N)[C@H](O)[C@H](C)O1 [Doxorubicin, Doxorubicin hydrochloride salt]
